Assay results: US9834571B2, “Compounds for inhibiting cell proliferation in EGFR-driven cancers” (ARIAD Pharmaceuticals, Inc., priority 2012, dated 2017)

How the values were obtained:
[1] = molecular target: human EGFR (native sequence) (Homo sapiens, UniProt P00533); test: Kinase inhibitory activity against human EGFR (native sequence); format: biochemical; details: human EGFR native sequence; 10 μM ATP; read-out: IC50 for kinase inhibition, EGFR
Experimental: (§1) Kinase inhibitory activity of the compounds was measured against human EGFR (native sequence) and against EGFR bearing the L858R mution and the L858R/T790M double mutation (EGFR, L858R, and L858R/T790M, respectively in Table 1). Additional assays can be conducted with EGFR deletion mutants such as delE746-A750 with or without the additional T790M mutation. Assay conditions included 10 pt curves with 3 μM top concentration (singlicates) and 10 μM ATP.

EGFR L858R = EGFR L858R (Homo sapiens, UniProt P00533, L858R); test: Kinase inhibitory activity against EGFR bearing the L858R mutation; format: biochemical; details: EGFR L858R; 10 μM ATP; read-out: IC50 for kinase inhibition, EGFR L858R
Experimental: as §1

EGFR L858R/T790M = EGFR L858R/T790M (Homo sapiens, UniProt P00533, L858R/T790M); test: Kinase inhibitory activity against EGFR bearing the L858R/T790M double mutation; format: biochemical; details: EGFR L858R/T790M double mutation; 10 μM ATP; read-out: IC50 for kinase inhibition, EGFR L858R T790M
Experimental: as §1

[2] = molecular target: T1, BaF3 cells expressing the target EGFR mutations (Homo sapiens, UniProt P00533, T790M, cells depend on it, form not given); test: Antiproliferative activity (MTT) against BaF3 cells expressing the target EGFR mutations; format: cell-based; details: BAF3 EGFR DEL T790M PURO POOL cells, read-out: IC50, BAF3 EGFR DEL T790M PURO POOL
T1 construct: IC50, BAF3 EGFR DEL T790M PURO POOL; other: BAF3 EGFR DEL T790M PURO POOL cells, MTT; other: BAF3 EGFR DEL T790M PURO POOL cells; MTT
Experimental: (§2) We also assessed the antiproliferative activity of compounds of Formula (I) against BaF3 cells expressing the target EGFR mutations or control (i.e., cell lines expressing wildtype EGFR). Assays were conducted using MTT.

[3] = molecular target: T2, BaF3 cells expressing the target EGFR mutations (Homo sapiens, UniProt P00533, T790M/L858R, cells depend on it); test: as above; format: cell-based; details: BAF3 EGFR L858R-T790M PURO POOL cells, read-out: IC50, BAF3 EGFR L858R-T790M PURO POOL
T2 construct: IC50, BAF3 EGFR L858R-T790M PURO POOL; other: BAF3 EGFR L858R-T790M PURO POOL cells, MTT; IC50, BAF3 EGFR L858R-T790M PURO POOL; other: BAF3 EGFR L858R-T790M PURO POOL cells; MTT
Experimental: as §2

[4] = tested on: BaF3 cells expressing wildtype EGFR; test: Antiproliferative activity (MTT) against control BaF3 cells expressing wildtype EGFR; format: cell-based; details: Mus musculus, BAF3 PARENTAL cells (control)
Experimental: as §2

T1 sequence (P00533 with tags, fused parts or gaps DEL746-750/T790M, form open): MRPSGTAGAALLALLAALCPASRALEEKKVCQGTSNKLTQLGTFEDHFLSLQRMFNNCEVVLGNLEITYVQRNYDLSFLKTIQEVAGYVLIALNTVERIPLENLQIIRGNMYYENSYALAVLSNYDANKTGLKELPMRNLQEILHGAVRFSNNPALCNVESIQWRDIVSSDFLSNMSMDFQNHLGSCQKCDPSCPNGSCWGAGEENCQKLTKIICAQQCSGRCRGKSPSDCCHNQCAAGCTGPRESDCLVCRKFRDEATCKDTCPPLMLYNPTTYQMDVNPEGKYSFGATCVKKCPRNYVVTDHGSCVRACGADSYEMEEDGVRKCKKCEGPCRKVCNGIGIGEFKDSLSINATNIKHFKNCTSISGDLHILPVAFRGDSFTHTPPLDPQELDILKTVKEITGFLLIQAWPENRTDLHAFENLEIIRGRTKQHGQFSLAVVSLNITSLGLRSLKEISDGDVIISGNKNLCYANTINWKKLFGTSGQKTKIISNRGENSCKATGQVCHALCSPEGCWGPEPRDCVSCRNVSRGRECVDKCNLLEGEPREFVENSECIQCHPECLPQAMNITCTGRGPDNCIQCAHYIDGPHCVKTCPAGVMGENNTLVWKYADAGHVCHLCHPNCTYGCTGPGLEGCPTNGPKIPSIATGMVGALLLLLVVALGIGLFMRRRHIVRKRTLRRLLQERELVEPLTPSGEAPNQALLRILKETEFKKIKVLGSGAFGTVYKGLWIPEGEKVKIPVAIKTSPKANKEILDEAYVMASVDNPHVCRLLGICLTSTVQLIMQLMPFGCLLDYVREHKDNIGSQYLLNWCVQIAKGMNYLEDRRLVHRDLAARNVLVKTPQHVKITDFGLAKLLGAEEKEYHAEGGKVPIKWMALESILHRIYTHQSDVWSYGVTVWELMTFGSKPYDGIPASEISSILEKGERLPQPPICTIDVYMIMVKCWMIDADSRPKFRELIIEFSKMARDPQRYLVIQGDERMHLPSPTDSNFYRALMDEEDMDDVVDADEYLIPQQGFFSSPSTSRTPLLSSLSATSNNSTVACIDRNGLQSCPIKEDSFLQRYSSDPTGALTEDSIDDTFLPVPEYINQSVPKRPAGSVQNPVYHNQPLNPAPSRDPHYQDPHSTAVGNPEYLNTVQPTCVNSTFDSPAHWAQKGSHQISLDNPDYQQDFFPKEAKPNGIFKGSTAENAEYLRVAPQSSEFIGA
human EGFR (native sequence), sequence (P00533 25-1210): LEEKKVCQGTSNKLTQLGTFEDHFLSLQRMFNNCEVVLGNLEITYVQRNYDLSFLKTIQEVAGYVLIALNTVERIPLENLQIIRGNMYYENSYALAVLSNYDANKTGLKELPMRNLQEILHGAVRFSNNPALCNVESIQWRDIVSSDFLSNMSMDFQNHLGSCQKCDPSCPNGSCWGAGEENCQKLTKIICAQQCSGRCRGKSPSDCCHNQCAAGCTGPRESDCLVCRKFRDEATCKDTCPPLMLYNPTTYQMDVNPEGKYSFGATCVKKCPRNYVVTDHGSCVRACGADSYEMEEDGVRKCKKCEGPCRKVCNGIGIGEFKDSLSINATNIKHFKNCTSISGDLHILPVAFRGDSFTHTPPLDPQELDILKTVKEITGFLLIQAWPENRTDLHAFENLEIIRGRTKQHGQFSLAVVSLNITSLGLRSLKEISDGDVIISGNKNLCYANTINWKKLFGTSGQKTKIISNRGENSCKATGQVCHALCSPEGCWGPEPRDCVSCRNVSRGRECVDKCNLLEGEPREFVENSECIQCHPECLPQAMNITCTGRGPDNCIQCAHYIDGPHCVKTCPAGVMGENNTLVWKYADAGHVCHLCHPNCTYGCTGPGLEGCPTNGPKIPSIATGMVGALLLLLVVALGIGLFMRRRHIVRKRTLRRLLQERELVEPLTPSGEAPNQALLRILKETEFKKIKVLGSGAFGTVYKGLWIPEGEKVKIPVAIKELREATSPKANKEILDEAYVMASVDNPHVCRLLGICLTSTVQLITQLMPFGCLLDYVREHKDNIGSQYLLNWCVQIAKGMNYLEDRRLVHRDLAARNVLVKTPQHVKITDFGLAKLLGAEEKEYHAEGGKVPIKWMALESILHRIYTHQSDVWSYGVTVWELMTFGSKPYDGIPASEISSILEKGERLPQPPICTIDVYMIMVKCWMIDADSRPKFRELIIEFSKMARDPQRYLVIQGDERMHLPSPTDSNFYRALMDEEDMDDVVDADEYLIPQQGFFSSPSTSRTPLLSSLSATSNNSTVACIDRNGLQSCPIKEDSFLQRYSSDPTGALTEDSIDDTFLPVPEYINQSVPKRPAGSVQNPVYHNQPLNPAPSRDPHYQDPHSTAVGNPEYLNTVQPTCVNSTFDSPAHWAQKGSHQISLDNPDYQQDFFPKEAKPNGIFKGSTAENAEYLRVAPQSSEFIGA
EGFR L858R/T790M, sequence (P00533 25-1210 T790M/L858R): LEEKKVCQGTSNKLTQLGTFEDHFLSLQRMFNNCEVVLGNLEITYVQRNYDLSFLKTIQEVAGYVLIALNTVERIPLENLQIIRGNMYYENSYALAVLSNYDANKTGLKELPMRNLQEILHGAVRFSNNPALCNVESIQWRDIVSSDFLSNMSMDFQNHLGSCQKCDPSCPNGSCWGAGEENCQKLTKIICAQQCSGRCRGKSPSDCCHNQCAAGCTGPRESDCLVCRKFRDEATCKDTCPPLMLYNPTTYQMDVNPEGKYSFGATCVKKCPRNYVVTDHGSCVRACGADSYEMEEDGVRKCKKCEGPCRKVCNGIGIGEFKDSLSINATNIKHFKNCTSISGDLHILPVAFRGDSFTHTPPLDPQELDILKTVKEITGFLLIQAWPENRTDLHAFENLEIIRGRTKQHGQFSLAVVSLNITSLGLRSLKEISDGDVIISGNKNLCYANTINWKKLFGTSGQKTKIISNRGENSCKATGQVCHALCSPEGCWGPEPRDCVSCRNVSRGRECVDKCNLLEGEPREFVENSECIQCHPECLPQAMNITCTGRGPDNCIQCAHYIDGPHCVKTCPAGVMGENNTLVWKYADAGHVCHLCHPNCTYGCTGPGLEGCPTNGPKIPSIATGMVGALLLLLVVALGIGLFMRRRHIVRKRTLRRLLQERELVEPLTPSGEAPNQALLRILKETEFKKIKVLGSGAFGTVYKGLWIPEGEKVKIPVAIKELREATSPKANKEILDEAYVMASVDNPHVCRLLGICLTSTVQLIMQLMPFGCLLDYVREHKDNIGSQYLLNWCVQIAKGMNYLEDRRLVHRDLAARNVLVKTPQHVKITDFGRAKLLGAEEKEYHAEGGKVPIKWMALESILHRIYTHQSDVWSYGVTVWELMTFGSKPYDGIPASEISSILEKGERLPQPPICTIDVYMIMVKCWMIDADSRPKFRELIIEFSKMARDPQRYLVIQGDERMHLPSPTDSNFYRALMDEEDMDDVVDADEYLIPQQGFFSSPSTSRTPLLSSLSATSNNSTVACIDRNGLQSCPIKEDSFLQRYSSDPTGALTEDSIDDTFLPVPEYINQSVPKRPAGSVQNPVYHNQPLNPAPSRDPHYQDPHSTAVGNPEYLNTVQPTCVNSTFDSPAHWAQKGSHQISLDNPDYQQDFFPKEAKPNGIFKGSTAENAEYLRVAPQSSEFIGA
EGFR L858R, sequence (P00533 25-1210 L858R): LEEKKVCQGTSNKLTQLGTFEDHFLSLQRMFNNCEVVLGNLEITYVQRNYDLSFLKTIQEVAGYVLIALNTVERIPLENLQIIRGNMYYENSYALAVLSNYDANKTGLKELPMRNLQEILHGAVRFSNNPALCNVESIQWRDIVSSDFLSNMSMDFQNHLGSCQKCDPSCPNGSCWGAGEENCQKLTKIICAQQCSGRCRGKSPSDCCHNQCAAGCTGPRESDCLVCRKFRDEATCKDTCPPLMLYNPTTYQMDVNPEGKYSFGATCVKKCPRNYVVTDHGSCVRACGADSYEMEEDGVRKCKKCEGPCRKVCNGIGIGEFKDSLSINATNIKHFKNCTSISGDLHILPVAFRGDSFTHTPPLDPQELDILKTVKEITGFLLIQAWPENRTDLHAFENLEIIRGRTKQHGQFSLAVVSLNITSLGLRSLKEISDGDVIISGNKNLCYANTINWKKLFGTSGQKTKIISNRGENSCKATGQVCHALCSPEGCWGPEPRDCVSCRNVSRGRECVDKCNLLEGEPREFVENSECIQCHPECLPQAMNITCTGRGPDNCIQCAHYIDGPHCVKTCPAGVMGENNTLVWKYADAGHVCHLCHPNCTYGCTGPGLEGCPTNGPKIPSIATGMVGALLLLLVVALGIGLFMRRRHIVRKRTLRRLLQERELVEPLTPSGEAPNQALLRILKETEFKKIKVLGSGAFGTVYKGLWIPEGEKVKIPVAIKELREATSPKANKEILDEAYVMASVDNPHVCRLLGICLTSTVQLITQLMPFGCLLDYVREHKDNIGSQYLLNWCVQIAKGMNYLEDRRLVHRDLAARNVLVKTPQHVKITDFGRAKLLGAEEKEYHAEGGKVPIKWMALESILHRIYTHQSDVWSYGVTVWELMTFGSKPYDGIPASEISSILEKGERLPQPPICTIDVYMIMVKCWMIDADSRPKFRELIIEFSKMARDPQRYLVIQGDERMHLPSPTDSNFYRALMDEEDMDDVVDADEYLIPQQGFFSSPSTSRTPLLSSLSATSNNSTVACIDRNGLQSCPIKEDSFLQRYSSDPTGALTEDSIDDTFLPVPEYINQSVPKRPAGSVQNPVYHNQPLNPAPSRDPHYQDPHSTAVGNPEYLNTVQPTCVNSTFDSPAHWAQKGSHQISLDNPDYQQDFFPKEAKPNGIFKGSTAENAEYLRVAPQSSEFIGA

SMILES	IC50 [1] [nM]	IC50 (EGFR L858R) [nM]	IC50 (EGFR L858R/T790M) [nM]	GI50 [2] [nM]	GI50 [3] [nM]	IC50 [4] [nM]
C=CC(=O)Nc1cc(Nc2ncc(Cl)c(Nc3ccccc3P(C)(C)=O)n2)c(OC)cc1N1CC(N2CCCC2)C1 [Example 31, N-(5-((5-chloro-4-((2-(dimethylphosphoryl)phenyl)amino)pyrimidin-2-yl)amino)-4-methoxy-2-(3-(pyrrolidin-1-yl)azetidin-1-yl)phenyl)acrylamide]	< 50	< 50	< 50	< 50	< 50	≥ 250
C=CC(=O)Nc1cc(Nc2ncc(Cl)c(Nc3ccccc3P(C)(C)=O)n2)c(OC)cc1N1CCC(O)C1 (stereo not drawn) [Example 32, N-(5-((5-chloro-4-((2-(dimethylphosphoryl)phenyl)amino)pyrimidin-2-yl)amino)-2-(3-hydroxypyrrolidin-1-yl)-4-methoxyphenyl)acrylamide]	< 50	< 50	< 50	50 to 100	101 to 250	≥ 250
C=CC(=O)Nc1cc(Nc2ncc(Cl)c(Nc3ccccc3P(C)(C)=O)n2)c(OC)cc1N1CCC(N2CCCCC2)C1 (stereo not drawn) [Example 33, N-(5-((5-chloro-4-((2-(dimethylphosphoryl)phenyl)amino)pyrimidin-2-yl)amino)-4-methoxy-2-(3-(piperidin-1-yl)pyrrolidin-1-yl)phenyl)acrylamide]	< 50	< 50	< 50	< 50	< 50	≥ 250
C=CC(=O)Nc1cc(Nc2ncc(Cl)c(Nc3ccccc3P(C)(C)=O)n2)c(OC)cc1N1CCC(N(CC)CC)C1 (stereo not drawn) [Example 34, N-(5-((5-chloro-4-((2-(dimethylphosphoryl)phenyl)amino)pyrimidin-2-yl)amino)-2-(3-(diethylamino)pyrrolidin-1-yl)-4-methoxyphenyl)acrylamide]	< 50	< 50	< 50	< 50	< 50	≥ 250
C=CC(=O)Nc1cc(Nc2ncc(Cl)c(Nc3ccccc3P(C)(C)=O)n2)c(OC)cc1N1CCC(N2CCC(O)C2)C1 (stereo not drawn) [Example 35, N-(5-((5-chloro-4-((2-(dimethylphosphoryl)phenyl)amino)pyrimidin-2-yl)amino)-2-(3-hydroxy-[1,3′-bipyrrolidin]-1′-yl)-4-methoxyphenyl)acrylamide]	< 50	< 50	< 50	101 to 250	≥ 250	≥ 250
C=CC(=O)Nc1cc(Nc2ncc(Cl)c(Nc3ccccc3P(C)(C)=O)n2)c(OC)cc1N1CCC(N2CCCC2)C1 (stereo not drawn) [Example 36, N-(2-([1,3′-bipyrrolidin]-1′-yl)-5-((5-chloro-4-((2-(dimethylphosphoryl)phenyl)amino)pyrimidin-2-yl)amino)-4-methoxyphenyl)acrylamide]	< 50	< 50	< 50	< 50	< 50	≥ 250
C=CC(=O)Nc1cc(Nc2ncc(Cl)c(Nc3ccccc3P(C)(C)=O)n2)c(OC)cc1N1CCC(N2CCN(C)CC2)C1 (stereo not drawn) [Example 37, N-(5-((5-chloro-4-((2-(dimethylphosphoryl)phenyl)amino)pyrimidin-2-yl)amino)-4-methoxy-2-(3-(4-methylpiperazin-1-yl)pyrrolidin-1-yl)phenyl)acrylamide]	< 50	< 50	< 50	50 to 100	101 to 250	≥ 250
C=CC(=O)Nc1cc(Nc2ncc(Cl)c(Nc3ccccc3P(C)(C)=O)n2)c(OC)cc1N1CCC(N(C)CCN(CC)CC)C1 (stereo not drawn) [Example 38, N-(5-((5-chloro-4-((2-(dimethylphosphoryl)phenyl)amino)pyrimidin-2-yl)amino)-2-(3-((2-(diethylamino)ethyl)(methyl)amino)pyrrolidin-1-yl)-4-methoxyphenyl)acrylamide]	< 50	< 50	< 50	< 50	101 to 250	≥ 250
